One may read the MIC as the least concentration at which growth counts as inhibited. Read a high MIC as a less susceptible organism. One may read the solubility as the concentration that dissolves in the medium under given conditions.

Values after ≈ are worked out from the molar mass of the structure shown. Where two headings read alike, the source gives them in different places.

One data set relates to C. diff strain P24. The data set is described as follows: MIC, agar dilution susceptibility testing, C. diff strain P24. The data set is classed as cell-based, Clostridium difficile. The note with it: Wilkins-Chalgren Anaerobe agar, anaerobic, 37° C., 48 hours. As for the experimental part:
(§1) Susceptibility testing for Clostridium difficile strains was performed by two-fold serial antibiotic dilutions in Wilkins-Chalgren Anaerobe agar under anaerobic conditions. Vancomycin was included as a comparator drug. C. difficile cultures were inoculated onto pre-reduced Braziers (C.C.E.Y.) agar plates and grown at 37° C. for 48 hours under anaerobic conditions. Two to three colonies of the 48 hours cultures were inoculated into 5 ml of pre-reduced Schaedlers Broth and grown at 37° C. for 24 hours under anaerobic conditions. This culture was diluted with pre-reduced 0.9% NaCl to achieve the turbidity of the 0.5 McFarland standard and applied to the drug containing plates at a final inoculum of 10^5 cfu/spot. Drug-free growth control plates were included. The plates were incubated in the anaerobic chamber at 37° C. for 48 hours and examined for growth.

The next data set deals with C. diff strain E16. The data set is described as follows: MIC, agar dilution susceptibility testing, C. diff strain E16. The note with it: Wilkins-Chalgren Anaerobe agar, anaerobic, 37° C., 48 hours. It counts as cell-based, Clostridium difficile. As to the method: as §1
In general terms: In agar dilution the substance is mixed into plates at graded concentrations.

The next data set concerns C. diff strain 027SM. The data set is described as follows: MIC, agar dilution susceptibility testing, C. diff strain 027SM. The data set is classed as cell-based, Clostridium difficile. The note with it: Wilkins-Chalgren Anaerobe agar, anaerobic, 37° C., 48 hours. As to the method:
as §1

For the next data set, the system named is C. diff strain P49. The data set can be described thus: MIC, agar dilution susceptibility testing, C. diff strain P49. The data set is classed as cell-based, Clostridium difficile. The note with it: Wilkins-Chalgren Anaerobe agar, anaerobic, 37° C., 48 hours. As for the experimental part:
as §1

A further data set has as its system C. diff strain P62. The data set can be described thus: MIC, agar dilution susceptibility testing, C. diff strain P62. The data set is classed as cell-based, Clostridium difficile. The settings on record: Wilkins-Chalgren Anaerobe agar, anaerobic, 37° C., 48 hours. As to the method: as §1
The subject of another data set is C. diff strain 027Can. The data set is described as follows: MIC, agar dilution susceptibility testing, C. diff strain 027Can. It counts as cell-based, Clostridium difficile. The note with it: Wilkins-Chalgren Anaerobe agar, anaerobic, 37° C., 48 hours, repeat determinations. As to the method: as §1
The subject of another data set is C. diff strain B32. The data set is described as follows: MIC, agar dilution susceptibility testing, C. diff strain B32. The data set is classed as cell-based, Clostridium difficile. The note with it: Wilkins-Chalgren Anaerobe agar, anaerobic, 37° C., 48 hours. As to the method:
as §1

In a further data set the test system is C. diff strain 37779. The data set can be described thus: MIC, agar dilution susceptibility testing, C. diff strain 37779. It counts as cell-based, Clostridium difficile. The note with it: Wilkins-Chalgren Anaerobe agar, anaerobic, 37° C., 48 hours, repeat determinations. As to the method:
as §1

The next data set has as its system C. diff strain E101. The data set can be described thus: MIC, agar dilution susceptibility testing, C. diff strain E101. It counts as cell-based, Clostridium difficile. The settings on record: Wilkins-Chalgren Anaerobe agar, anaerobic, 37° C., 48 hours. As to the method:
as §1

The next data set concerns C. diff strain E4. The data set is described as follows: MIC, agar dilution susceptibility testing, C. diff strain E4. It counts as cell-based, Clostridium difficile. The settings on record: Wilkins-Chalgren Anaerobe agar, anaerobic, 37° C., 48 hours. As to the method: as §1
The next data set has as its system C. diff strain P59. The data set can be described thus: MIC, agar dilution susceptibility testing, C. diff strain P59. The data set is classed as cell-based, Clostridium difficile. The note with it: Wilkins-Chalgren Anaerobe agar, anaerobic, 37° C., 48 hours. As for the experimental part:
as §1

Another data set relates to C. diff strain 19126. The data set is described as follows: MIC, agar dilution susceptibility testing, C. diff strain 19126. It counts as cell-based, Clostridium difficile. The note with it: Wilkins-Chalgren Anaerobe agar, anaerobic, 37° C., 48 hours, repeat determinations. As for the experimental part:
as §1

Another data set deals with C. diff strain 630. The data set can be described thus: MIC, agar dilution susceptibility testing, C. diff strain 630. The data set is classed as cell-based, Clostridium difficile. The settings on record: Wilkins-Chalgren Anaerobe agar, anaerobic, 37° C., 48 hours, repeat determinations. As for the experimental part: as §1
Data set [1] in a line: Susceptibility to enzymatic digestion in simulated intestinal fluid (FIG. 1). The data set is classed as in vitro ADME. The note with it: 37° C., HPLC (FIG. 1). As to the method: Nisin and the compound of compound 1 were tested for their susceptibility towards enzymatic digestion in the intestine using a simulated intestinal fluid (SIF). The SIF was based on the standard USP solutions for simulated intestinal fluids and its activity was confirmed against Bovine Serum Albumin (Hilger et al, Clin. Exp. Immunol. 2001, 123, 387-94). The compounds were incubated in SIF at 37° C. and their concentrations quantified by analytical HPLC (UV detection at 210 nm using the conditions outlined in Table 1).

Data set [2] can be described thus: Example 4: stability in SIF over 240 minutes (FIG. 4). It counts as in vitro ADME. The note with it: 37° C., HPLC. As to the method: Compound 1 was incubated in SIF at 37° C. for up to 240 minutes. Aliquots were withdrawn from the test sample and diluted with water prior to analysis by HPLC (as described in Example 2). The compound 1 peak area was recorded and was expressed as a percentage with respect to the time zero sample.

The nature of data set [3]: Example 3: solubility in SIF and SGF. The data set is classed as physicochemical. The note with it: target 40 mg/ml. As to the method: 10 mg of compound 1 was suspended in […] Simulated Intestinal Fluid (SIF), and was left on a shaker for 10 minutes, after which time suspension was observed. This was in contrast to an identical sample suspended in SGF which dissolved fully after the same period of time. This sample prepared at a target concentration of 40 mg/ml was centrifuged to remove sediment. The supernatant was then diluted to a target of 1 mg/ml with water and compound 1 content was compared against a 1 mg/mL standard prepared in 50% ethanol (aq) using a HPLC method of Example 2.

Data set [4] is described as follows: Dissolution testing of the capsule of Example 1 in simulated gastric fluid. The settings on record: hard gelatine capsule size 00, 50 mg compound 1, 10 mL SGF, 37° C., stirred. It counts as physicochemical. As for the experimental part: A hard gelatine capsule (size 00) was opened into two segments and compound 1 (50 mg) was weighed into the larger segment. The capsule segment containing compound 1 was sealed by inserting and closing the smaller segment over the larger capsule section. A hard gelatine capsule (size 00) containing up to 500 mg can be prepared employing this method.
The capsule of Example 1 was dropped into a 10 mL of simulated gastric fluid (SGF) at 37° C. […] Samples of the solution/suspension (100 μL) were withdrawn at 1, 2, 3, 4, 5, 6, 7, 8, 9, 10, 15, 20, 25, 30 and 70 minutes after the addition of the capsule to SGF.
The samples were clarified using a bench top centrifuge to remove solid from the suspension. The clarified supernatants were diluted with 50% ethanol and then were analysed by HPLC.

A short description of data set [5]: Example 2: solubility and dissolution behaviour from hard gelatin capsule in SGF. It counts as physicochemical. The note with it: 50 mg in size 00 hard gelatin capsule, 10 mL SGF, 37° C. As to the method:
The solubility and dissolution behaviour of compound 1 contained in a hard gelatin capsule when suspended in simulated gastric fluid (SGF) has been monitored at 37° C.
Compound 1 (50 mg) was transferred into a size 00 hard gelatin capsule. This capsule represents the lowest dose that is likely to be administered in clinical trials. The capsule was dropped into 10 mL of SGF at 37° C. and the sample was intermittently swirled by hand. Dissolution was monitored visually and by HPLC over a one hour period. For the dissolution experiment monitored by HPLC, the sample was stirred continuously with a magnetic stirrer at 37° C. 100 ul samples were withdrawn from the dissolution experiment and were diluted with 900 ul water. The diluted sample was then centrifuged to remove solid material (mostly gelatin).

For the compound deoxyactagardine B [DAB], the MIC in the data set on C. diff strain P24 is 2 µg/mL; against C. diff strain E16, 2 µg/mL; in the data set on C. diff strain 027SM, 2 µg/mL; in the data set with C. diff strain P49, 2 µg/mL; against C. diff strain P62, 2 µg/mL; against C. diff strain 027Can it was 4 µg/mL. Moreover, the MIC with C. diff strain B32 came to 2 µg/mL; in the data set with C. diff strain 37779 it was 4 µg/mL; in the data set with C. diff strain E101, 2 µg/mL; in the data set with C. diff strain E4 it was 2 µg/mL; against C. diff strain P59, 2 µg/mL; in the data set with C. diff strain 19126, 4 µg/mL. Besides, the MIC against C. diff strain 630 came out at 4 µg/mL.

In the case of “Deoxyactagardine B (1,9-diaminononane) monocarboxamide [Compound 7]”, the MIC in the data set on C. diff strain 027Can (listed as Comp 7) is 0.5 µg/mL.

With `CCC(C)[C@@H]1NC(=O)C2NC(=O)[C@H](CC(C)C)NC(=O)[C@H](NC(=O)[C@H]3CSC[C@H](N)C(=O)N[C@@H](CO)C(=O)NCC(=O)N[C@@H](Cc4c[nH]c5ccccc45)C(=O)N[C@@H](C(C)C)C(=O)N3)[C@H](C)SC[C@H](NC(=O)[C@H](CCC(=O)O)NC1=O)C(=O)NCC(=O)N[C@@H]1C(=O)N[C@@H](CC(C)C)C(=O)N[C@@H](C(C)C)C(=O)N[C@@H](CS[C@H]2C)C(=O)N[C@@H](C)C(=O)N[C@H](C(=O)NCCCCCCCN)CS[C@H]1C` (stereo partly shown) [Compound 1, Deoxyactagardine B (1,7-diaminoheptane) monocarboxamide], the “stability in SIF” value in [1] is “essentially stable”. In addition, in data set [2], the “peak area as percentage with respect to the time zero sample” value is “no significant reduction”. For the same compound, the solubility at 10 min in [3] (SGF, 10 minutes on shaker, read-out: solubility in SGF) came to 40 mg/mL (≈ 20.1 mM). In [3] (Simulated Intestinal Fluid (SIF), Simulated Intestinal Fluid pH 6.8, 10 minutes on shaker, supernatant by HPLC, read-out: solubility in SIF), the solubility at 10 min is less than 0.8 mg/mL. The “time to complete release from the capsule into SGF” value in data set [4] is no more than 4 min. For the same compound, in [5], the “dissolution time in SGF” value was no more than 3 min and the “time in which the bulk dissolves in SGF” value is reported as “less than 5 minutes”. In [5] (HPLC (FIG. 3)), the “time to reach saturation dissolution in SGF” value was 3 min.

Source of the values: US20130171252A1, “Formulation Comprising a Type B Lantibiotic” (NOVACTA […], priority 2010, published 2013).
